Results reported in US20100003246A1, “Novel heterocyclic compounds and uses therof” (priority 2008, published 2010).

Biological target: T1, b-Raf(V600E) (Homo sapiens, UniProt P15056, V600E)
T1 construct: made in house
Assay: Raf/Mek Amplified Luminescence Proximity Homogeneous Assay (Alpha Screen), b-Raf(V600E)
Type: biochemical
Conditions: mutant b-Raf(V600E), read-out: mut-b-RAF (IC50 in uM)
How it was run: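 IC50 derived by non-linear regression from AlphaScreen luminescence of phospho-MEK (anti-p-MEK antibody). Reaction: ~4 pM b-Raf(V600E), ~10 nM kinase-dead biotinylated Mek, 60 min compound pre-incubation, then 3 h with ATP at room temperature in pH 7.5 Tris/MgCl2/DTT buffer, quenched with EDTA.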

T1 sequence (P15056 whole entry V600E): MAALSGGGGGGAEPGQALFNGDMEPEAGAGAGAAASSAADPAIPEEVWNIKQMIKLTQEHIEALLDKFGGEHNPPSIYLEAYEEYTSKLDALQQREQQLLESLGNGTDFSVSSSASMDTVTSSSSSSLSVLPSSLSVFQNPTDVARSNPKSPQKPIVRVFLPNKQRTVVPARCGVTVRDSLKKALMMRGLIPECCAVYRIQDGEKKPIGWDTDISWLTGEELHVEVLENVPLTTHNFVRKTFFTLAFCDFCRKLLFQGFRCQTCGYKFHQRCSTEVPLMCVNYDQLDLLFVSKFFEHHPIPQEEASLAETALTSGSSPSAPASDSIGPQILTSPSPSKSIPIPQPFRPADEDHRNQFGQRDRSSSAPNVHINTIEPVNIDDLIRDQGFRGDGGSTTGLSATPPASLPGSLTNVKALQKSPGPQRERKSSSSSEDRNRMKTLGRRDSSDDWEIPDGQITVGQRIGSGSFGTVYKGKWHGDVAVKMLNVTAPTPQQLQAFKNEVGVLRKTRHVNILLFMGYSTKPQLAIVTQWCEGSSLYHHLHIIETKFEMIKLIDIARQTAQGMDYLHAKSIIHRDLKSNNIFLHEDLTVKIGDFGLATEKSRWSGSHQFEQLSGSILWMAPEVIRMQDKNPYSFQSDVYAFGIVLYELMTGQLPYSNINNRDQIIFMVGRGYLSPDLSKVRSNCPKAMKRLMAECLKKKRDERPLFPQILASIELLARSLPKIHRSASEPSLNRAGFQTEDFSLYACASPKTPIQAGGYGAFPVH

Structure (SMILES)	IC50 [µM]
COc1nc(-c2oc(-c3ccccc3)nc2-c2ccncc2)cnc1N [Compound 90, 3-methoxy-5-(2-phenyl-4-(pyridin-4-yl)oxazol-5-yl)pyrazin-2-amine]	0.113
COc1cc(-c2[nH]c(C)nc2-c2ccncc2)cnc1N [Compound 51, 3-methoxy-5-(2-methyl-4-(pyridin-4-yl)-1H-imidazol-5-yl)pyridin-2-amine]	0.0196
COc1cncc(-c2[nH]c(-c3ccccc3)nc2-c2ccncc2)c1 [Compound 36, 3-methoxy-5-(2-phenyl-4-(pyridin-4-yl)-1H-imidazol-5-yl)pyridine]	0.013
COCC(=O)N1CCC[C@@H](Nc2nccc(-c3nc(-c4ccc(F)cc4)[nH]c3-c3cnc(N)c(OC)c3)n2)C1 [Compound 100, (R)-1-(3-(4-(5-(6-amino-5-methoxypyridin-3-yl)-2-(4-fluorophenyl)-1H-imidazol-4-yl)pyrimidin-2-ylamino)piperidin-1-yl)-2-methoxyethanone]	0.0259
CC[C@H](C)Nc1nccc(-c2nc(-c3ccc(F)cc3)[nH]c2-c2cnc(N)c(OC)c2)n1 [Compound 176, (S)-4-(5-(6-amino-5-methoxypyridin-3-yl)-2-(4-fluorophenyl)-1H-imidazol-4-yl)-N-sec-butylpyrimidin-2-amine]	0.0046
COc1cc(-c2nc(-c3ccccc3)[nH]c2-c2ccncn2)cnc1N [Compound 61, 3-methoxy-5-(2-phenyl-5-(pyrimidin-4-yl)-1H-imidazol-4-yl)pyridin-2-amine]	0.0049
COc1cc(Nc2nccc(-c3[nH]c(C(C)(C)C)nc3-c3nc(OC)c(N)nc3C)n2)ccn1 [Compound 253, 4-(4-(5-amino-6-methoxy-3-methylpyrazin-2-yl)-2-tert-butyl-1H-imidazol-5-yl)-N-(2-methoxypyridin-4-yl)pyrimidin-2-amine]	0.0062
COc1nc(-c2[nH]c(-c3ccccc3)nc2-c2ccncc2)cnc1N [Compound 39, 3-methoxy-5-(2-phenyl-4-(pyridin-4-yl)-1H-imidazol-5-yl)pyrazin-2-amine]	0.006
COc1nc(-c2nc(-c3ccc(C(F)(F)F)cc3)oc2-c2ccnc(NCC(C)C)n2)cnc1N [Compound 223, 4-(4-(5-amino-6-methoxypyrazin-2-yl)-2-(4-(trifluoromethyl)phenyl)oxazol-5-yl)-N-isobutylpyrimidin-2-amine]	0.011
FC(F)(F)c1ccc(-c2nc(-c3ccncc3)c(-c3ccncc3)[nH]2)cc1 [Compound 84, 4,4′-(2-(4-(trifluoromethyl)phenyl)-1H-imidazole-4,5-diyl)dipyridine]	0.229
COc1cc(-c2nc(C3=CCOCC3)[nH]c2-c2ccncc2)cnc1N [Compound 154, 5-(2-(3,6-dihydro-2H-pyran-4-yl)-5-(pyridin-4-yl)-1H-imidazol-4-yl)-3-methoxypyridin-2-amine]	0.0033
Nc1ccc(-c2[nH]c(-c3ccccc3)nc2-c2ccncc2)cn1 [Compound 29, 5-(2-phenyl-4-(pyridin-4-yl)-1H-imidazol-5-yl)pyridin-2-amine]	0.26
CCc1cc(-c2[nH]c(-c3ccc(F)cc3)nc2-c2ccncc2)cnc1N [Compound 105, 3-ethyl-5-(2-(4-fluorophenyl)-4-(pyridin-4-yl)-1H-imidazol-5-yl)pyridin-2-amine]	0.215
COc1cc(-c2[nH]c(-c3ccccc3)nc2-c2ccnc(N[C@@H]3CCCN(S(=O)(=O)C4CC4)C3)n2)cnc1N [Compound 91, (R)-4-(5-(6-amino-5-methoxypyridin-3-yl)-2-phenyl-1H-imidazol-4-yl)-N-(1-(cyclopropylsulfonyl)piper-idin-3-yl)pyrimidin-2-amine]	0.0044
COc1cc(-c2nc(C(C)(C)C)[nH]c2-c2ccnc(N[C@@H]3CCN(C(C)=O)C3)n2)cnc1N [Compound 185, (R)-1-(3-(4-(4-(6-amino-5-methoxypyridin-3-yl)-2-tert-butyl-1H-imidazol-5-yl)pyrimidin-2-ylamino)pyrrolidin-1-yl)ethanone]	0.0032

These reach a lower IC50. Values come first.

IC50 [µM]	Structure (SMILES)
0.0003	COc1cc(-c2nc(-c3ccccc3)oc2-c2ccncc2)cnc1N [Compound 92, 3-methoxy-5-(2-phenyl-5-(pyridin-4-yl)oxazol-4-yl)pyridin-2-amine]
0.002	COc1cc(-c2nc(-c3ccccc3)[nH]c2-c2ccnc(NC(C)=O)c2)cnc1N [Compound 82, N-(4-(4-(6-amino-5-methoxypyridin-3-yl)-2-phenyl-1H-imidazol-5-yl)pyridin-2-yl)acetamide]
0.0001	CCOC(=O)N[C@@H](C)CNc1nccc(-c2[nH]c(C(C)(C)C)nc2-c2cnc(N)c(OC)n2)n1 [Compound 236, (S)-ethyl 1-(4-(4-(5-amino-6-methoxypyrazin-2-yl)-2-tert-butyl-1H-imidazol-5-yl)pyrimidin-2-ylamino)propan-2-ylcarbamate]
0.0011	COc1cc(-c2nc(-c3ccccc3)[nH]c2-c2ccnc(N)n2)cnc1N [Compound 73, 4-(4-(6-amino-5-methoxypyridin-3-yl)-2-phenyl-1H-imidazol-5-yl)pyrimidin-2-amine]
0.0007	COc1cc(-c2nc(C(C)(C)C)[nH]c2-c2ccnc(NC[C@H](C)NC(=O)[C@H](C)OC)n2)cnc1N [Compound 241, (S)-N-((S)-1-(4-(4-(6-amino-5-methoxypyridin-3-yl)-2-tert-butyl-1H-imidazol-5-yl)pyrimidin-2-ylamino)propan-2-yl)-2-methoxypropanamide]
0.0014	COc1cc(-c2[nH]c(-c3ccc(C#N)cc3)nc2-c2ccncc2)cnc1N [Compound 104, 4-(5-(6-amino-5-methoxypyridin-3-yl)-4-(pyridin-4-yl)-1H-imidazol-2-yl)benzonitrile]
0.0001	COc1cc(-c2nc(-c3ccc(F)cc3)[nH]c2-c2ccnc(NC[C@H](C)NC(=O)[C@H](C)OC)n2)cnc1N [Compound 197, (S)-N-((S)-1-(4-(4-(6-amino-5-methoxypyridin-3-yl)-2-(4-fluorophenyl)-1H-imidazol-5-yl)pyrimidin-2-ylamino)propan-2-yl)-2-methoxypropanamide]
0.0001	COCC(=O)N[C@@H](C)CNc1nccc(-c2[nH]c(-c3ccc(C(F)(F)F)cc3)nc2-c2cnc(N)c(OC)n2)n1 [Example 4, (S)—N-(1-(4-(4-(5-amino-6-methoxypyrazin-2-yl)-2-(4-(trifluoromethyl)phenyl)-1H-imidazol-5-yl)pyrimidin-2-ylamino)propan-2-yl)-2-methoxyacetamide]
0.003	COCC(=O)N[C@@H](C)CNc1nccc(-c2oc(-c3ccc(C(F)(F)F)cc3)nc2-c2cnc(N)c(OC)n2)n1 [Compound 229, (S)-N-(1-(4-(4-(5-amino-6-methoxypyrazin-2-yl)-2-(4-(trifluoromethyl)phenyl)-oxazol-5-yl)pyrimidin-2-ylamino)propan-2-yl)-2-methoxyacetamide]
0.0001	CCNc1nccc(-c2[nH]c(C(C)(C)C)nc2-c2cnc(N)c(OC)c2)n1 [Compound 211, 4-(4-(6-amino-5-methoxypyridin-3-yl)-2-tert-butyl-1H-imidazol-5-yl)-N-ethylpyrimidin-2-amine]
0.0002	COc1cc(-c2[nH]c(-c3cccc(-c4ccncc4)c3)nc2-c2ccncc2)cnc1N [Compound 170, 3-methoxy-5-(4-(pyridin-4-yl)-2-(3-(pyridin-4-yl)phenyl)-1H-imidazol-5-yl)pyridin-2-amine]
0.002	COc1cc(-c2nc(-c3ccc(F)cc3)oc2-c2ccnc(NCC(C)C)n2)cnc1N [Compound 220, 4-(4-(6-amino-5-methoxypyridin-3-yl)-2-(4-fluorophenyl)oxazol-5-yl)-N-isobutylpyrimidin-2-amine]
0.0002	COc1cc(-c2[nH]c(-c3ccccc3)nc2-c2ccnc(N[C@@H]3CCCN(S(=O)(=O)c4ccc(Cl)cc4)C3)n2)cnc1N [Compound 58, (R)-4-(5-(6-amino-5-methoxypyridin-3-yl)-2-phenyl-1H-imidazol-4-yl)-N-(1-(4-chlorophenylsulfonyl)piperidin-3-yl)pyrimidin-2-amine]
0.0013	COc1cc(-c2nc(-c3ccc(F)cc3)[nH]c2-c2ccnc(Nc3cccc(C(F)(F)F)c3)n2)cnc1N [Compound 171, 4-(4-(6-amino-5-methoxypyridin-3-yl)-2-(4-fluorophenyl)-1H-imidazol-5-yl)-N-(3-(trifluoromethyl)phenyl) pyrimidin-2-amine]
0.0007	Fc1ccc(-c2nc(-c3ccncc3)c(-c3cnc4[nH]cc(Br)c4c3)[nH]2)cc1 [Compound 151, 3-bromo-5-(2-(4-fluorophenyl)-4-(pyridin-4-yl)-1H-imidazol-5-yl)-1H-pyrrolo[2,3-b]pyridine]
0.001	COC(=O)N[C@@H](C)CNc1nccc(-c2[nH]c(C(C)(C)C)nc2-c2nc(OC)c(N)nc2C)n1 [Compound 260, (S)-methyl 1-(4-(4-(5-amino-6-methoxy-3-methylpyrazin-2-yl)-2-tert-butyl-1H-imidazol-5-yl)pyrimidin-2-ylamino)propan-2-ylcarbamate]
0.0001	CCCNc1nccc(-c2[nH]c(C(C)(C)C)nc2-c2cnc(N)c(OC)c2)n1 [Compound 212, 4-(4-(6-amino-5-methoxypyridin-3-yl)-2-tert-butyl-1H-imidazol-5-yl)-N-propylpyrimidin-2-amine]
0.0009	COc1cc(-c2[nH]c(-c3cccc4cccnc34)nc2-c2ccncc2)cnc1N [Compound 168]
0.0011	COc1nc(-c2nc(C(C)(C)C)[nH]c2-c2ccnc(NC[C@H](C)NC(=O)OCC(C)C)n2)c(C)nc1N [Compound 258, (S)-isobutyl 1-(4-(4-(5-amino-6-methoxy-3-methylpyrazin-2-yl)-2-tert-butyl-1H-imidazol-5-yl)pyrimidin-2-ylamino)propan-2-ylcarbamate]
0.0025	COc1cc(-c2[nH]c(-c3ccc(F)cc3)nc2-c2ccnc(NC3CCN(S(=O)(=O)C4CC4)CC3)n2)cnc1N [Compound 95, 4-(5-(6-amino-5-methoxypyridin-3-yl)-2-(4-fluorophenyl)-1H-imidazol-4-yl)-N-(1-(cyclopropylsulfonyl)piper-idin-4-yl)pyrimidin-2-amine]
